Laboratory results taken from ChEMBL document CHEMBL3885861, “Open TG-GATES”.

Organism: Rattus norvegicus
Experiment: Open TG-GATES - Regimen: Daily Repeat
Format: toxicity, organism-based, Sprague-Dawley
Set-up: regimen Daily Repeat, gender Male, age 6 weeks
Details: in vivo, po, route gavage; for Eos / Fbg / Hb / Ht / Lym / MCH / MCV / Mono / Neu / PT / Plat / RBC / Ret / WBC / APTT / Bas: tissue Blood; for KIDNEY_L / KIDNEY_R / KIDNEY_TOTAL: tissue Kidney; for LIVER: tissue Liver; for ALP / ALT / AST / BUN / CRE / Ca / Cl / DBIL / GLC / IP / K / LDH / Na / PL / RALB / TBIL / TC / TP / gamma-GTP: tissue Plasma
[1] = 100 mg/kg, 72 h, dose level Middle, time 3 day
[2] = 100 mg/kg, […], dose level Middle, time 7 day
[3] = 100 mg/kg, […], dose level Middle, time 14 day
[4] = 100 mg/kg, […], dose level Middle, time 28 day
[5] = 300 mg/kg, 72 h, dose level High, time 3 day

NC(=O)N1c2ccccc2C=Cc2ccccc21 [CARBAMAZEPINE]
Eos [1]: 1.2%
Fbg [1]: 224.6 mg/dL
Hb [1]: 13.6 g/dL
Ht [1]: 39.9%
Lym [1]: 79%
MCH [1]: 21.3 pg
MCV [1]: 62.4 fL
Mono [1]: 2.4%
Neu [1]: 16.4%
PT [1]: 11.9 s
Plat [1]: 125.3 x10_4/uL
RBC [1]: 638.8 x10_4/ul
Ret [1]: 4.9%
WBC [1]: 79.2 x10_2/uL
KIDNEY_L [1]: 1 g
KIDNEY_R [1]: 1 g
KIDNEY_TOTAL [1]: 2.1 g
LIVER [1]: 12.1 g
ALP [1]: 795 IU/L
ALT [1]: 39.6 IU/L
AST [1]: 67.2 IU/L
BUN [1]: 15.8 mg/dL
CRE [1]: 0.4 mg/dL
Ca [1]: 11.1 mg/dL
Cl [1]: 103.4 meq/L
DBIL [1]: 0.084 mg/dL
GLC [1]: 217.2 mg/dL
IP [1]: 7.9 mg/dL
K [1]: 3.5 meq/L
LDH [1]: 212.4 IU/L
Na [1]: 141.4 meq/L
PL [1]: 154.4 mg/dL
RALB [1]: 3.4 g/dL
TBIL [1]: 0.1 mg/dL
TC [1]: 80.6 mg/dL
TP [1]: 5.8 g/dL
gamma-GTP [1]: 0.8 IU/L
TERMINAL_BW [2]: 271.4 g
TERMINAL_BW [3]: 314.7 g
TERMINAL_BW [4]: 397.6 g
APTT [2]: 20.2 s
Bas [2]: 0%
Eos [2]: 1%
Fbg [2]: 229.8 mg/dL
Hb [2]: 13.3 g/dL
Ht [2]: 39.4%
Lym [2]: 85%
MCH [2]: 21.1 pg
MCV [2]: 62.5 fL
Mono [2]: 2.6%
Neu [2]: 10.8%
PT [2]: 11.6 s
Plat [2]: 134.8 x10_4/uL
RBC [2]: 630.8 x10_4/ul
Ret [2]: 5.1%
WBC [2]: 131.2 x10_2/uL
APTT [3]: 21.8 s
Bas [3]: 0%
Eos [3]: 0.6%
Fbg [3]: 213.4 mg/dL
Hb [3]: 14.4 g/dL
Ht [3]: 41.3%
Lym [3]: 80%
MCH [3]: 20.6 pg
MCV [3]: 59.1 fL
Mono [3]: 2%
Neu [3]: 16%
PT [3]: 12.4 s
Plat [3]: 122.9 x10_4/uL
RBC [3]: 698.6 x10_4/ul
Ret [3]: 3.8%
WBC [3]: 129.1 x10_2/uL
APTT [4]: 21.1 s
Bas [4]: 0%
Eos [4]: 1.2%
Fbg [4]: 222 mg/dL
Hb [4]: 15.7 g/dL
Ht [4]: 44.3%
Lym [4]: 80%
MCH [4]: 19.5 pg
MCV [4]: 55.1 fL
Mono [4]: 2.4%
Neu [4]: 15.4%
PT [4]: 12.8 s
Plat [4]: 105.9 x10_4/uL
RBC [4]: 804 x10_4/ul
Ret [4]: 2%
WBC [4]: 98.2 x10_2/uL
KIDNEY_L [2]: 1.2 g
KIDNEY_R [2]: 1.1 g
KIDNEY_TOTAL [2]: 2.3 g
KIDNEY_L [3]: 1.3 g
KIDNEY_R [3]: 1.3 g
KIDNEY_TOTAL [3]: 2.6 g
KIDNEY_L [4]: 1.6 g
KIDNEY_R [4]: 1.5 g
KIDNEY_TOTAL [4]: 3.1 g
LIVER [2]: 14.5 g
LIVER [3]: 14.8 g
LIVER [4]: 16.8 g
ALP [2]: 857.6 IU/L
ALT [2]: 34 IU/L
AST [2]: 63 IU/L
BUN [2]: 17 mg/dL
CRE [2]: 0.5 mg/dL
Ca [2]: 10.7 mg/dL
Cl [2]: 102.2 meq/L
DBIL [2]: 0.1 mg/dL
GLC [2]: 207.6 mg/dL
IP [2]: 7.3 mg/dL
K [2]: 3.6 meq/L
LDH [2]: 233.2 IU/L
Na [2]: 141.2 meq/L
PL [2]: 175 mg/dL
RALB [2]: 3.5 g/dL
TBIL [2]: 0.1 mg/dL
TC [2]: 93.4 mg/dL
TP [2]: 5.9 g/dL
gamma-GTP [2]: 1 IU/L
ALP [3]: 733.4 IU/L
ALT [3]: 37.6 IU/L
AST [3]: 64.6 IU/L
BUN [3]: 16.5 mg/dL
CRE [3]: 0.5 mg/dL
Ca [3]: 10.6 mg/dL
Cl [3]: 101.6 meq/L
DBIL [3]: 0.1 mg/dL
GLC [3]: 205.4 mg/dL
IP [3]: 7.5 mg/dL
K [3]: 3.7 meq/L
LDH [3]: 203.2 IU/L
Na [3]: 141.4 meq/L
PL [3]: 161.2 mg/dL
RALB [3]: 3.4 g/dL
TBIL [3]: 0.2 mg/dL
TC [3]: 84.4 mg/dL
TP [3]: 5.9 g/dL
gamma-GTP [3]: 1.2 IU/L
ALP [4]: 641.4 IU/L
ALT [4]: 41.2 IU/L
AST [4]: 62.2 IU/L
BUN [4]: 17.4 mg/dL
CRE [4]: 0.4 mg/dL
Ca [4]: 10.2 mg/dL
Cl [4]: 101.8 meq/L
DBIL [4]: 0.092 mg/dL
GLC [4]: 213.8 mg/dL
IP [4]: 7 mg/dL
K [4]: 3.6 meq/L
LDH [4]: 138.6 IU/L
Na [4]: 141.4 meq/L
PL [4]: 158.2 mg/dL
RALB [4]: 3.5 g/dL
TBIL [4]: 0.1 mg/dL
TP [4]: 6.2 g/dL
gamma-GTP [4]: 0.6 IU/L
TERMINAL_BW [5]: 224.7 g
APTT [5]: 20.4 s
